Measured values published in US11731943B2, “Therapeutic compounds, compositions and methods of use thereof” (priority 2016, dated 2023).
Where two headings read alike, the source gives them in different places.

Columns and labels:
[1] = biological target: isolated recombinant JAK1 kinase domain (Homo sapiens (Human), UniProt P23458); assay: JAK1 enzyme assay (Caliper LabChip, Ki); format: biochemical
How it was run: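 Recombinant human JAK1 kinase domain phosphorylating an N-terminally 5-carboxyfluorescein-labelled JAK3-derived peptide, 30 min at 22 °C, stopped with EDTA (50 mM final). Phosphorylated fraction of total peptide read by Caliper LabChip mobility shift; Ki from Morrison tight-binding fit corrected for ATP competition (Ki=Ki,app/(1+[ATP]/Km,app)).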

[2] = biological target: isolated recombinant JAK2 kinase domain (Homo sapiens (Human), UniProt O60674); assay: JAK2 enzyme assay (Caliper LabChip, Ki); format: biochemical
Chain of isolated recombinant JAK2 kinase domain (O60674 849-1124): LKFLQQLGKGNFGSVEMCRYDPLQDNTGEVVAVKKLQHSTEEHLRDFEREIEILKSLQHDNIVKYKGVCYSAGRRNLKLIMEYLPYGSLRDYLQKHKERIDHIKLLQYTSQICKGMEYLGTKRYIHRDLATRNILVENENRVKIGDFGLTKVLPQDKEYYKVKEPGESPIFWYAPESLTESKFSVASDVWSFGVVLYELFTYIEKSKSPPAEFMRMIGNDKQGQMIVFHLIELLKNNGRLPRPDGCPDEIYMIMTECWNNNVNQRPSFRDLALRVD
How it was run: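 Recombinant human JAK1 or JAK2 kinase domain phosphorylating a 5-carboxyfluorescein-labelled JAK3-derived peptide; 30 min at 22 °C, stopped with EDTA (50 mM final). Phosphorylated product measured as a fraction of total peptide by Caliper LabChip mobility shift.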

[3] = tested on: JAK1-dependent STAT6 phosphorylation downstream of IL-13 stimulation in BEAS-2B human bronchial epithelial cells; assay: JAK1 pathway assay in BEAS-2B cells (IL-13-pSTAT6, MSD); format: cell-based; conditions: Homo sapiens, BEAS-2B
[4] = BEAS-2B cells, IL-13 stimulation, read-out: IL-13 p-STAT6 BEAS-2B IC50
[5] = read-out: IL-13 p-STAT6 BEAS-2B IC50, BEAS-2B cells, IL-13 stimulation

Chain of isolated recombinant JAK1 kinase domain (P23458 875-1153): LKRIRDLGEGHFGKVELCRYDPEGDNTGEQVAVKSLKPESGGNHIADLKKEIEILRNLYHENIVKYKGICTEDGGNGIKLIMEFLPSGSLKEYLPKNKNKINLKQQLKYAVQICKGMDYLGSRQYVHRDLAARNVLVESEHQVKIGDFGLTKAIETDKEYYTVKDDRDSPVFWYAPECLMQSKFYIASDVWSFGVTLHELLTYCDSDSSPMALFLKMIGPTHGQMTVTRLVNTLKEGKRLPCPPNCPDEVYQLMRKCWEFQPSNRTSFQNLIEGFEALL

Structure (SMILES) | Ki ([1]; read-out: JAK1 Ki) | Ki [2] | IC50 [3, 4] | Ki [1] | IC50 [3, 5]
Cc1cc(CN2CCC(CC#N)(n3cc(C(N)=O)c(NC(=O)C4CC4)n3)CC2)ccc1-c1ccccc1 [Example 160, 1-[4-(cyanomethyl)-1-[(3-methyl-4-phenyl-phenyl)methyl]-4-piperidyl]-3-(cyclopropanecarbonylamino) pyrazole-4-carboxamide] | 3.2 nM | 12 nM | 186 nM |  | 
N#CCC1(n2cc(C(N)=O)c(NC(=O)C3CC3)n2)CCN(Cc2ccc(-c3ccccc3)c(C#N)c2)CC1 [Example 161, 1-[4-(cyanomethyl)-1-[(3-cyano-4-phenyl-phenyl)methyl]-4-piperidyl]-3-(cyclopropanecarbonylamino) pyrazole-4-carboxamide] | 5.5 nM | 35.3 nM | 1010 nM |  | 
COc1cc(CN2CCC(CC#N)(n3cc(C(N)=O)c(NC(=O)C4CC4)n3)CC2)ccc1-c1ccccc1 [Example 162, 1-[4-(cyanomethyl)-1-[(3-methoxy-4-phenyl-phenyl)methyl]-4-piperidyl]-3-(cyclopropanecarbonylamino) pyrazole-4-carboxamide] | 3.1 nM | 10.6 nM | 293 nM |  | 
N#CCC1(n2cc(C(N)=O)c(NC(=O)C3CC3)n2)CCN(Cc2ccc(-c3ccccc3)c(Cl)c2)CC1 [Example 163, 1-[1-[(3-chloro-4-phenyl-phenyl)methyl]-4-(cyanomethyl)-4-piperidyl]-3-(cyclopropanecarbonylamino) pyrazole-4-carboxamide] | 2.1 nM | 18.5 nM | 103 nM |  | 
N#CC[C@]1(n2cc(C(N)=O)c(NC(=O)C3CC3)n2)CCN(Cc2ccccc2)C[C@@H]1F [Example 164, 1-[1-benzyl-4-(cyanomethyl)-3-fluoro-4-piperidyl]-3-(cyclopropanecarbonylamino) pyrazole-4-carboxamide] | 2.7 nM | 9 nM | 275 nM |  | 
N#CCC1(n2cc(C(N)=O)c(NC(=O)C3CC3)n2)CCN(Cc2ccc(-c3ccc(C(F)(F)F)cc3)nc2)CC1 [Example 166, 1-[4-(cyanomethyl)-1-[[6-[4-(trifluoromethyl)phenyl]-3-pyridyl]methyl]-4-piperidyl]-3-(cyclopropanecarbonylamino) pyrazole-4-carboxamide] | 2.2 nM | 80 nM | 68 nM |  | 
N#CCC1(n2cc(C(N)=O)c(NC(=O)C3CC3)n2)CCN(C(=O)OCC(F)(F)F)CC1 [Example 167, 2,2,2-trifluoroethyl 4-[4-carbamoyl-3-(cyclopropanecarbonylamino)pyrazol-1-yl]-4-(cyanomethyl)piperidine-1-carboxylate] | 2.3 nM | 28.7 nM | 833 nM |  | 
N#CCC1(n2cc(C(N)=O)c(NC(=O)C3CC3)n2)CCN(C(=O)CCC(F)(F)F)CC1 [Example 169, 1-[4-(cyanomethyl)-1-(4,4,4-trifluorobutanoyl)-4-piperidyl]-3-(cyclopropanecarbonylamino) pyrazole-4-carboxamide] | 3.7 nM | 48.3 nM | > 1000 nM |  | 
N#CC[C@]1(n2cc(C(N)=O)c(NC(=O)C3CC3)n2)CC[C@@H](N2CC(F)(F)C2)CC1 [Example 178, 1-[1-(cyanomethyl)-4-(3,3-difluoroazetidin-1-yl)cyclohexyl]-3-(cyclopropanecarbonylamino) pyrazole-4-carboxamide] |  | 18.4 nM |  | 4.7 nM | 167 nM
N#CC[C@]1(n2cc(C(N)=O)c(NC(=O)C3CC3)n2)CC[C@@H](N2CC(F)C2)CC1 [Example 180, 1-[1-(cyanomethyl)-4-(3-fluoroazetidin-1-yl)cyclohexyl]-3-(cyclopropanecarbonylamino) pyrazole-4-carboxamide] |  | 17.3 nM |  | 5.5 nM | 168 nM
CC(OC(=O)N1CCC(CC#N)(n2cc(C(N)=O)c(NC(=O)C3CC3)n2)CC1)C1CC1 (stereo not drawn) [Example 182, 1-cyclopropylethyl 4-[4-carbamoyl-3-(cyclopropanecarbonylamino)pyrazol-1-yl]-4-(cyanomethyl)piperidine-1-carboxylate] | 4.7 nM | 50.7 nM | 675 nM |  | 
N#CCC1(n2cc(C(N)=O)c(NC(=O)C3CC3)n2)CCN(Cc2ccccc2F)CC1 [Example 184, 1-[4-(cyanomethyl)-1-[(2-fluorophenyl)methyl]-4-piperidyl]-3-(cyclopropanecarbonylamino) pyrazole-4-carboxamide] | 90.4 nM | 160 nM | 177 nM |  | 
COC(=O)Nc1nn(C2(CC#N)CCN(Cc3ccc(-c4ccccc4)c(O)c3)CC2)cc1C(N)=O [Example 186, Methyl (4-carbamoyl-1-(4-(cyanomethyl)-1-((2-hydroxy-[1,1′-biphenyl]-4-yl) Methyl)piperidin-4-yl)-1H-pyrazol-3-yl)carbamate] | 0.24 nM | 1 nM | 68 nM |  | 
CCOC(=O)Nc1nn(C2(CC#N)CCN(Cc3ccc(-c4ccccc4)c(O)c3)CC2)cc1C(N)=O [Example 187, ethyl N-[4-carbamoyl-1-[4-(cyanomethyl)-1-[(3-hydroxy-4-phenyl-phenyl)methyl]-4-piperidyl]pyrazol-3-yl]carbamate] | 0.52 nM | 3.1 nM | 74 nM |  | 
N#CCC1(n2cc(C(N)=O)c(NC(=O)C3CC3)n2)CCN(Cc2ccc(-c3ccccc3)nc2F)CC1 [Example 188, 1-[4-(cyanomethyl)-1-[(2-fluoro-6-phenyl-3-pyridyl)methyl]-4-piperidyl]-3-(cyclopropanecarbonylamino) pyrazole-4-carboxamide] | 0.6 nM | 1.4 nM | 34 nM |  | 
CCc1ccc(-c2ccc(CN3CCC(CC#N)(n4cc(C(N)=O)c(NC(=O)C5CC5)n4)CC3)cc2O)cc1 [Example 189, 1-[4-(cyanomethyl)-1-[[4-(4-ethylphenyl)-3-hydroxy-phenyl]methyl]-4-piperidyl]-3-(cyclopropanecarbonylamino) pyrazole-4-carboxamide] | 0.33 nM | 1.3 nM | 38 nM |  | 
N#CCC1(n2cc(C(N)=O)c(NC(=O)C3CC3)n2)CCN(Cc2ccc(-c3ccn(CC(F)(F)F)n3)c(F)c2)CC1 [Example 190, 1-[4-(cyanomethyl)-1-[[3-fluoro-4-[1-(2,2,2-trifluoroethyl)pyrazol-3-yl]phenyl]methyl]-4-piperidyl]-3-(cyclopropanecarbonylamino) pyrazole-4-carboxamide] | 1.1 nM | 11 nM | 93 nM |  | 
N#CCC1(n2cc(C(N)=O)c(NC(=O)C3CC3)n2)CCN(Cc2cc(O)c(-c3ccccc3)cc2F)CC1 [Example 191, 1-[4-(cyanomethyl)-1-[(2-fluoro-5-hydroxy-4-phenyl-phenyl)methyl]-4-piperidyl]-3-(cyclopropanecarbonylamino) pyrazole-4-carboxamide] | 0.2 nM | 0.32 nM | 82 nM |  | 
N#CCC1(n2cc(C(N)=O)c(NC(=O)C3CC3C#N)n2)CCN(Cc2ccc(-c3ccccc3)cc2)CC1F (stereo not drawn) [Example 192, 3-[(2-cyanocyclopropanecarbonyl)amino]-1-[4-(cyanomethyl)-3-fluoro-1-[(4-phenylphenyl)methyl]-4-piperidyl]pyrazole-4-carboxamide] | 0.35 nM | 1.2 nM | 28 nM |  | 
N#CCC1(n2cc(C(N)=O)c(NC(=O)C3CC3)n2)CCN(Cc2ccc(-c3ccccc3)nc2)CC1F (stereo not drawn) [Example 193, 1-[4-(cyanomethyl)-3-fluoro-1-[(6-phenyl-3-pyridyl)methyl]-4-piperidyl]-3-(cyclopropanecarbonylamino) pyrazole-4-carboxamide] | 0.33 nM | 0.26 nM | 48 nM |  | 
Cc1c(CN2CCC(CC#N)(n3cc(C(N)=O)c(NC(=O)C4CC4)n3)CC2)ccc(-c2ccccc2)c1O [Example 194, 1-[4-(cyanomethyl)-1-[(3-hydroxy-2-methyl-4-phenyl-phenyl)methyl]-4-piperidyl]-3-(cyclopropanecarbonylamino) pyrazole-4-carboxamide] | 0.63 nM | 2.2 nM | 50 nM |  | 
COC(=O)Nc1nn(C2(CC#N)CCN(Cc3ccc(-c4ccccc4)c(O)c3)CC2F)cc1C(N)=O (stereo not drawn) [Example 195, methyl N-[4-carbamoyl-1-[4-(cyanomethyl)-3-fluoro-1-[(3-hydroxy-4-phenyl-phenyl)methyl]-4-piperidyl]pyrazol-3-yl]carbamate] | 0.11 nM | 0.15 nM | 15 nM |  | 
COC(=O)Nc1nn(C2(CC#N)CCN(Cc3ccc(-c4ccccc4)nc3)CC2F)cc1C(N)=O (stereo not drawn) [Example 196, methyl N-[4-carbamoyl-1-[4-(cyanomethyl)-3-fluoro-1-[(6-phenyl-3-pyridyl)methyl]-4-piperidyl]pyrazol-3-yl]carbamate] | 0.26 nM | 0.27 nM | 30 nM |  | 
COC(=O)Nc1nn(C2(CC#N)CCN(Cc3ccc(-n4nccn4)cc3)CC2)cc1C(N)=O [Example 197, methyl N-[4-carbamoyl-1-[4-(cyanomethyl)-1-[[4-(triazol-2-yl)phenyl]methyl]-4-piperidyl]pyrazol-3-yl]carbamate] | 1.2 nM | 22 nM | 65 nM |  | 
COC(=O)Nc1nn(C2(CC#N)CCN(Cc3ccc(-c4ccccc4)nc3F)CC2)cc1C(N)=O [Example 198, methyl N-[4-carbamoyl-1-[4-(cyanomethyl)-1-[(2-fluoro-6-phenyl-3-pyridyl)methyl]-4-piperidyl]pyrazol-3-yl]carbamate] | 1.2 nM | 3.8 nM | 74 nM |  | 
